Patent publication US9688637B2, “3-amidobenzamides and uses thereof for increasing cellular levels of A3G and other A3 family members” (Northwestern University, priority 2014, dated 2017)

Experiments:
Format in all cases: cell-based, human
A3G-Luc/Vif = A3G-Luc/Vif luciferase screen in 293T cells stably co-expressing A3G-Luc and HIV-1 Vif; conditions: for Vif-A3G-Luc Activity (% of RLUs compared to DMSO treated control): 10 μM, 48 hrs, DMSO = 100%
A3G-Luc = A3G-Luc luciferase screen in 293T cells stably expressing A3G-Luc; conditions: for A3G-Luc Activity (% of Relative Light Units compared to DMSO treated control): 10 μM, 48 hrs, DMSO = 100%
HEK293 = assay: Cancer cell death, cell numbers vs DMSO; conditions: 6 μM, 16 days; embryonic kidney cell line lacking A3B, wild-type functional p53
Source text: To test the effect of the compounds described below on cancer cell death, cell lines derived from different types of cancer were studied in vitro. MCF10A, MCF7, T47D, MDA-MB-157 and MDA-MB-231 are breast cancer cell lines. NHPrE, BHPrE, RWPE1, DU145, and PC3 cells are prostate cell lines. HeLa is cervical cancer cell line. HEK293 is human embryonic kidney cell line lacking A3B expression. There are differences among these cancer cell lines in p53 expression (44-46). MCF10A, MCF7, NHPrE, BHPrE and HEK293 cells have wild-type and functional p53. RWPE1 and HeLa cells have wild-type p53 but the p53 protein in these cell line is not functional because of effects of human papilloma virus E6 protein. T47D, MDA-MB-231, and DU145 cell lines have mutant p53, while MDA-MB-157 and PC3 cells have no p53 expression. 25,000 cells per well were plated in 6 well plates. In the case of HEK293 cells. 500,000 cells per well in 6-well plates were used instead. After 24 hrs, culture medium was replaced with new medium containing either DMSO as control or one of the compounds described below (6 μM per well concentration). After 8 days incubation with compounds, cell numbers were counted from each well and plotted with number of cells from DMSO treated sample as 100%. We performed the experiments at least twice. HEK293, MCF7 and T47D cells they were maintained for 16 days with compounds instead of 8 days.

Row | SMILES | Vif-A3G-Luc Activity (% of RLUs compared to DMSO treated control) (A3G-Luc/Vif) [%] | A3G-Luc Activity (% of Relative Light Units compared to DMSO treated control) (A3G-Luc) [%] | cell killing (cell numbers vs DMSO) (HEK293) | increase of A3G (A3G-Luc/Vif; 293T stably expressing A3G-Luc, with Vif (FIG. 6)) | increase of A3G (A3G-Luc; 293T stably expressing A3G-Luc, without Vif (FIG. 6))
1 | COc1ccc(C(=O)Nc2ccc(Cl)c(Cl)c2)cc1NC(=O)CC1CC1 [NU-466] | 202 | 318 | not killed |  | 
2 | COc1ccc(C(=O)Nc2ccc(Cl)c(Cl)c2)cc1NC(=O)C1CCC1 [NU-302] | 167 | 196 | not killed |  | 
3 | COc1ccc(C(=O)Nc2ccc(Cl)c(Cl)c2)cc1NC(=O)C(C)C [NU-52] | 135 | 178 | not killed | about 3 fold | about 3 fold
